Among the data in patent publication US8546438B2, “Substituted (thiophenyl-carbonyl)imidazolidinones, and use thereof” (priority 2008, dated 2013) are IC50 and EC50 values, retold here.

For orientation: IC50 means the concentration needed to halve the response being measured. For orientation: EC50 means the concentration that produces a half-maximal response.

The target of one assay is T1, reverse transcriptase (Human immunodeficiency virus type 1 group M subtype B, UniProt P04585).
T1 construct: negative control (mixture without reverse transcriptase); purchased Roche Diagnostics GmbH, Mannheim, Germany
The assay is described as follows: Biochemical reverse transcriptase assay (Reverse Transcriptase Assay, colorimetric, Roche). The following applies: read-out: IC50(nM) RT assay. The procedure: The “Reverse Transcriptase Assay, colorimetric” (Roche Diagnostics GmbH, Mannheim, Germany) is used in accordance with the manufacturer's information. The test substances are dissolved in DMSO and are used in the test diluted in 5-fold steps (final DMSO concentration 1%). The resulting values of the photometric evaluation (405/492 nm) are less than 0.1 for the negative control (mixture without reverse transcriptase) and are in the region of 1.5 for the positive control (mixture without test substance). The IC50 values of the test substances are determined as the concentration of the test substance dilution at which the measured optical density is 50% of the positive control.

The subject of another assay is HIV-1NL4-3 K103N-Y181C. The assay is described as follows: Light assay with inhibitor-resistant HI reporter virus in MT4 7F2 cells. The assay is classed as cell-based. The settings on record: Human immunodeficiency virus 1, read-out: EC50(nM) MT4 7F2 cells HIV-1NL4-3 K103N-Y181C 2% FCS. The procedure: (§1) For the mixture for a 96-well MTP, 3 million MT4 7F2 cells are pelleted, suspended in 1 ml of RPMI 1640 medium without phenol red (Invitrogen, Karlsruhe, Germany)/10% FCS/10% AIM-V (Invitrogen, Karlsruhe, Germany) and incubated together with a suitable amount of the corresponding HIV-1NL4-3 reporter virus at 37° C. for 2 hours (pellet infection). Unadsorbed viruses are subsequently washed out with PBS, and the infected cells are pelleted again and suspended in 8 ml of RPMI 1640 medium without phenol red/2% or 10% FCS/10% AIM-V. 80 μl thereof are pipetted into each well of a white 96-well MTP with 20 μl of test substance in suitable dilution. To avoid edge effects, the wells on the edge of the MTP are not used for substance dilutions. The second vertical row of the MTP contains only infected cells (virus control) and the eleventh vertical row only uninfected cells (cell control), in each case in RPMI 1640 medium without phenol red/2% or 10% FCS/10% AIM-V. The other wells of the MTP contain the compounds of the invention in various concentrations starting from the third vertical row, from which the test substances are diluted in 3-fold steps up to the tenth vertical row 3^7-fold. The test substances are dissolved in DMSO, whereby the final DMSO concentration in the test mixture is 1%. The test mixtures are incubated at 37° C./5% CO2 for five days and, after the addition of 15 μl of Lu164 substrate (5 mg/ml coelenterazine dissolved in 30 μM glutathione/DMSO, 100 mM NaCl, 1M MES, 100 mM glutathione), evaluated by luminometry. The resulting values are in the region of 1 000 000 RLUs (relative light units) for the virus control and 300 to 400 RLUs for the cell control. The EC50 values of the test substances are determined as the concentration at which the virus replication measured in RLUs is 50% of the untreated infected cells.

Another assay has as its system HIV-1NL4-3 wt. The assay is described as follows: Light assay with wild-type HI reporter virus in MT4 7F2 cells. The assay is classed as cell-based. The following applies: Human immunodeficiency virus 1, read-out: EC50(nM) MT4 7F2 cells HIV-1NL4-3 wt 2% FCS. The procedure: as §1
Another assay deals with HIV-1LAI. The assay is described as follows: H9 assay with wild-type HIV-1LAI (AlamarBlue, supernatant infection). The assay is classed as cell-based. The settings on record: Human immunodeficiency virus 1, H9 cells, 10% FCS. The procedure:
For the mixture for a 96-well MTP, 3 million PBLs are pelleted, suspended in 1 ml of RPMI 1640 medium/10% FCS and incubated together with a suitable amount of HIV-1LAI (NIH AIDS Research & Reference Reagent Program, Germantown, USA) at 37° C. for 2 hours (pellet infection). Unadsorbed viruses are subsequently washed out with PBS, and the infected cells are pelleted again and suspended in 18 ml of RPMI 1640 medium/10% FCS/interleukin-2 (40 U/ml). 180 μl thereof are pipetted into each well of a white 96-well MTP with 20 μl of test substance in suitable dilution. Alternatively, after preparation of the substance dilutions in the MTP, the HIV is pipetted in together with the cells and is not washed out again (supernatant infection). In order to avoid edge effects, the wells at the edge of the MTP are not used for substance dilutions. The second vertical row of the MTP contains only infected cells (virus control) and the eleventh vertical row only uninfected cells (cell control), in each case in RPMI 1640 medium/10% FCS/interleukin-2 (40 U/ml). The other wells of the MTP contain the compounds of the invention in various concentrations starting from the third vertical row, from which the test substances are diluted in 3-fold steps up to the tenth vertical row 3^7-fold. The test substances are dissolved in DMSO, whereby the final DMSO concentration in the test mixture is 1%. The test mixtures are incubated at 37° C./5% CO2. After 5 and 7 days, 50 μl of cell-free supernatant are removed from each well to determine the amount of p24 present by means of a p24 ELISA (HIV-1 p24^CA Antigen Capture Assay Kit, NCI-Frederick Cancer Research and Development Center, Frederick, USA). From the resulting values of the photometric evaluation (450/620 nm) the EC50 values of the test substances are determined as the concentration at which the amount of p24 is 50% of the untreated infected cells.
Alternatively, H9 cells (ATCC, Wesel, Germany) are employed instead of PBLs for testing the test substances. H9 cells are incubated in RPMI 1640 medium with 2% or 10% FCS as a HIV-1LAI supernatant infection at 37° C./5% CO2, (20 μl of substance dilution and 80 μl of cells/virus per well) in accordance with the pattern described above for 5 days. Subsequently, 10 μl of AlamarBlue (Invitrogen, Karlsruhe, Germany) are added to each well, and the MTPs are incubated at 37° C. for 3 hours before the fluorimetric evaluation takes place (544/590 nm). The resulting values are about 40 000 for the untreated uninfected cells and about 7000 for the untreated infected cells. In the low concentration range, the EC50 values of the test substances are determined as the concentration at which the fluorescence is 50% of the untreated uninfected cells (in each case subtracting the values of the untreated infected cells). In addition, in the high concentration range, the CC50 values of the test substances are determined as the concentration at which the fluorescence is 50% of the untreated uninfected cells (in each case subtracting the values of the untreated infected cells).

In the case of `O=C1CN(C(=O)c2cc(-c3ccc(F)c(Cl)c3)c(-c3cc(F)cc(Cl)c3)s2)CN1` [Example 2, 1-{[4-(3-Chloro-4-fluorophenyl)-5-(3-chloro-5-fluorophenyl)thiophen-2-yl]carbonyl}imidazolidin-4-one], at reverse transcriptase, the IC50 was determined as 920 nM. The EC50 in the assay with HIV-1NL4-3 K103N-Y181C stood at 176 nM; with HIV-1NL4-3 wt, 20 nM; in the assay on HIV-1LAI, 68 nM.

`O=C1CN(C(=O)c2cc(-c3cccc(Cl)c3)c(-c3cc(F)cc(Cl)c3)s2)CN1` [Example 5, 1-{[5-(3-Chloro-5-fluorophenyl)-4-(3-chlorophenyl)thiophen-2-yl]carbonyl}imidazolidin-4-one]: on reverse transcriptase, the IC50 was determined as 2170 nM. In addition, the EC50 in the assay with HIV-1NL4-3 K103N-Y181C was 258 nM; with HIV-1NL4-3 wt, 21 nM; with HIV-1LAI, 85 nM.

`N#Cc1cc(F)cc(-c2sc(C(=O)N3CNC(=O)C3)cc2-c2ccc(F)c(Cl)c2)c1` [Example 10, 3-{3-(3-Chloro-4-fluorophenyl)-5-[(4-oxoimidazolidin-1-yl)carbonyl]thiophen-2-yl}-5-fluorobenzenecarbonitrile]: the concentration giving a half-maximal response (EC50) worked out at 40 nM in the assay on HIV-1NL4-3 K103N-Y181C, 5 nM in the assay with HIV-1NL4-3 wt and 34 nM in the assay with HIV-1LAI.

Take `O=C1CN(C(=O)c2cc(-c3ccc(F)c(Cl)c3)c(-c3cccc(Cl)c3)s2)CN1` [Example 9, 1-{[4-(3-Chloro-4-fluorophenyl)-5-(3-chlorophenyl)thiophen-2-yl]carbonyl}imidazolidin-4-one]: the EC50 with HIV-1NL4-3 K103N-Y181C is 260 nM; with HIV-1NL4-3 wt it was 35 nM; in the assay on HIV-1LAI, 593 nM.

As for `N#Cc1cc(-c2cc(C(=O)N3CNC(=O)C3)sc2-c2cccc(Cl)c2)ccc1F` [Example 8, 5-{2-(3-Chlorophenyl)-5-[(4-oxoimidazolidin-1-yl)carbonyl]thiophen-3-yl}-2-fluorobenzenecarbonitrile], the EC50 came to 121 nM in the assay with HIV-1NL4-3 K103N-Y181C, 5 nM in the assay with HIV-1NL4-3 wt and 103 nM in the assay on HIV-1LAI.

As to `N#Cc1cc(F)cc(-c2sc(C(=O)N3CNC(=O)C3)cc2-c2cccc(Cl)c2)c1` [Example 11, 3-{3-(3-Chlorophenyl)-5-[(4-oxoimidazolidin-1-yl)carbonyl]thiophen-2-yl}-5-fluorobenzenecarbonitrile], the values for the EC50 with HIV-1NL4-3 K103N-Y181C, in the assay with HIV-1NL4-3 wt and in the assay with HIV-1LAI were 123 nM, 2 nM and 22 nM, respectively.

With `N#Cc1cc(-c2cc(C(=O)N3CNC(=O)C3)sc2-c2cc(F)cc(Cl)c2)ccc1F` [Example 4, 5-{2-(3-Chloro-5-fluorophenyl)-5-[(4-oxoimidazolidin-1-yl)carbonyl]thiophen-3-yl}-2-fluorobenzenecarbonitrile], the EC50 is 44 nM with HIV-1NL4-3 K103N-Y181C, less than 1.5 nM in the assay with HIV-1NL4-3 wt and 12 nM in the assay with HIV-1LAI.

Consider `N#Cc1cccc(-c2cc(C(=O)N3CNC(=O)C3)sc2-c2cc(F)cc(Cl)c2)c1` [Example 1, 3-{2-(3-Chloro-5-fluorophenyl)-5-[(4-oxoimidazolidin-1-yl)carbonyl]thiophen-3-yl}benzenecarbonitrile], for which the concentration giving a half-maximal response (EC50) came out at 45 nM in the assay with HIV-1NL4-3 K103N-Y181C, 1 nM in the assay on HIV-1NL4-3 wt and 9 nM in the assay with HIV-1LAI.

`N#Cc1cc(-c2sc(C(=O)N3CNC(=O)C3)cc2-c2cccc(Cl)c2)ccc1F` [Example 6, 5-{3-(3-Chlorophenyl)-5-[(4-oxoimidazolidin-1-yl)carbonyl]thiophen-2-yl}-2-fluorobenzenecarbonitrile]: the EC50 amounted to 348 nM in the assay with HIV-1NL4-3 K103N-Y181C, 165 nM in the assay with HIV-1NL4-3 wt and 900 nM with HIV-1LAI.

For the molecule `O=C1CN(C(=O)c2cc(-c3cccc(Cl)c3)c(-c3cccc(OC(F)(F)F)c3)s2)CN1` [Example 7, 1-({4-(3-Chlorophenyl)-5-[3-(trifluoromethoxy)phenyl]thiophen-2-yl}carbonyl)imidazolidin-4-one], the EC50 in the assay with HIV-1NL4-3 K103N-Y181C was 150 nM; in the assay with HIV-1NL4-3 wt, 100 nM; with HIV-1LAI it was 1410 nM.

Take `N#Cc1cccc(-c2cc(C(=O)N3CNC(=O)C3)sc2-c2cccc(Cl)c2)c1` [Example 3, 3-{2-(3-Chlorophenyl)-5-[(4-oxoimidazolidin-1-yl)carbonyl]thiophen-3-yl}benzenecarbonitrile]: the IC50 on reverse transcriptase turned out to be 740 nM. In addition, the EC50 in the assay with HIV-1NL4-3 K103N-Y181C came to 100 nM; in the assay with HIV-1NL4-3 wt, 5 nM; in the assay on HIV-1LAI, 71 nM.
